The nature of one data set: in vitro. Conditions: human.
The test system of data set [1] is human red blood cells (hRBCs). The following applies: at 5 'LIM.

Where only a bound is given, the exact number is not on record here.

In turn, `CC[C@H](C)[C@H](NC(=O)CN)C(=O)NCC(=O)N[C@@H](C)C(=O)N[C@H](C(=O)N[C@@H](CC(C)C)C(=O)N[C@@H](CCCCN)C(=O)N[C@H](C(=O)N[C@@H](CC(C)C)C(=O)N[C@H](C(=O)N[C@H](C(=O)NCC(=O)N[C@@H](CC(C)C)C(=O)N1CCC[C@H]1C(=O)N[C@@H](C)C(=O)N[C@@H](CC(C)C)C(=O)N[C@H](C(=O)N[C@@H](CO)C(=O)N[C@@H](Cc1c[nH]c2ccccc12)C(=O)N[C@H](C(=O)N[C@@H](CCCCN)C(=O)N[C@@H](CCCNC(=N)N)C(=O)N[C@@H](CCCCN)C(=O)N[C@@H](CCCNC(=N)N)C(=O)N[C@@H](CCC(N)=O)C(=O)N[C@@H](CCC(N)=O)C(N)=O)[C@@H](C)CC)[C@@H](C)CC)[C@@H](C)O)[C@@H](C)O)C(C)C)C(C)C` [Melittin] registered a hemolysis at 5 µM in the data set “in vitro” of over 80%. In data set [1], the “hemolytic activity” value was “highly hemolytic”.

The record behind these values is patent US9533975B2, “Dual-action, unnatural proline-rich peptides as antibiotic agents and methods thereof” (Purdue Research Foundation, priority 2014, dated 2017).
